For one compound, EC50 results are on record in paper PMC3671888 (Journal of medicinal chemistry, 2012).

In the test the target is T1, recombinant human sGC (soluble guanylyl cyclase), α1 and β1 subunits (Homo sapiens, UniProt Q02108+Q02153).
T1 sequence (Q02108 1-690): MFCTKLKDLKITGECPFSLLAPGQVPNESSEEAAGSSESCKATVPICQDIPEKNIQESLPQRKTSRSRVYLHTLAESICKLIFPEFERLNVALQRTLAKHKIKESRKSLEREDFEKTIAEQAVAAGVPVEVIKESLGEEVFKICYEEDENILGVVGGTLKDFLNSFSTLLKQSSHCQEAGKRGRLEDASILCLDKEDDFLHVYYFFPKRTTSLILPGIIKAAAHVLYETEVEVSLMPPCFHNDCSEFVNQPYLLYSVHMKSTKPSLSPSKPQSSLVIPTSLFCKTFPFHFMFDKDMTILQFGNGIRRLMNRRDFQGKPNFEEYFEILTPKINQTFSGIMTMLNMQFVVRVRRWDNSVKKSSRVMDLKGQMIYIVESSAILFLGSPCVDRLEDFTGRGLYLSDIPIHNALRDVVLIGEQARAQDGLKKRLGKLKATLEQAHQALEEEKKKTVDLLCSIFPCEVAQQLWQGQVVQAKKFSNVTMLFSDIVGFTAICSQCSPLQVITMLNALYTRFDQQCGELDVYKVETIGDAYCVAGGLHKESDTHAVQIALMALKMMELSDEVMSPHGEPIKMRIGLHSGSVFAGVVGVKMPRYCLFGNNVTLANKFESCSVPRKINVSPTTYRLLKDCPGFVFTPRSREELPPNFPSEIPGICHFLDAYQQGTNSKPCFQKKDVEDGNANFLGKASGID
T1 sequence (Q02153 1-619): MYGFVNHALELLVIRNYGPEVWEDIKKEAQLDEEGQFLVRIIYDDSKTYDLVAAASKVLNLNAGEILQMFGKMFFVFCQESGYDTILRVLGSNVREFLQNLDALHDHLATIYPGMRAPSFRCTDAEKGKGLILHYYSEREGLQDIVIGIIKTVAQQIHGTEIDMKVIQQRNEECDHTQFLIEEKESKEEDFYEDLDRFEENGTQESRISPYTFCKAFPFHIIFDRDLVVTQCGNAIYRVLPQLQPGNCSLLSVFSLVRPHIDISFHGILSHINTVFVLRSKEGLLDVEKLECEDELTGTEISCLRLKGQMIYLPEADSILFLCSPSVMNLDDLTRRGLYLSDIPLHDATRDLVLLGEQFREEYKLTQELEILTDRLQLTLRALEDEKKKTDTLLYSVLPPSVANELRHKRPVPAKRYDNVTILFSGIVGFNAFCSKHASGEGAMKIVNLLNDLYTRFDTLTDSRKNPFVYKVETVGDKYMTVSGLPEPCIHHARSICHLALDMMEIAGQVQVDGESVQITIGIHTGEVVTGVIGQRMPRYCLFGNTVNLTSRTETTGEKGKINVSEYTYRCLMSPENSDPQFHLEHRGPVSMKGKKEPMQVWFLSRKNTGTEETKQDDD
Put plainly: [alpha-32P]GTP to […]cGMP conversion assay. The conditions noted are these: read-out: EC50 [μM] ^b; activation; preincubation with compound at 25 °C. The test is classed as biochemical.

Turning to `C#N.C#N.C/C1=C2/NC([C@H](CC(N)=O)[C@@]2(C)CCC(=O)NCC(C)O)[C@]2(C)N=C(/C(C)=C3N=C(/C=C4N=C1[C@@H](CCC(N)=O)C\4(C)C)[C@@H](CCC(N)=O)[C@]\3(C)CC(N)=O)[C@@H](CCC(N)=O)[C@]2(C)CC(N)=O.[Co]` (stereo partly shown) [compound 1, dicyanocobinamide], the EC50 was found to be 34.2 µM.
